In patent US11466044B2 (WAYNE STATE UNIVERSITY, priority 2017, dated 2022):
≈ marks a conversion by molar mass, not a printed value. Read-outs that look alike come from different tables or passages of the source.

Assays:
P aeruginosa = experiment: MIC by broth microdilution, P aeruginosa isolates; type: cell-based, Pseudomonas aeruginosa
[1] = system: rabbit reticulocyte ribosomes; experiment: in-vitro translation assay, rabbit reticulocyte ribosomes; type: biochemical; conditions: mammalian cytosolic ribosomes (rabbit)
[2] = system: A1555G mutant mitochondrial ribosome (human chimeric); experiment: in-vitro translation assay, human chimeric ribosomes, A1555G mutant mitochondrial decoding site; type: biochemical; conditions: human mitochondrial decoding site with A1555G point mutation; read-out: IC50 Mitoch. A1555G
Text: (§1) The antiribosomal activity of these compounds was investigated with cell-free translation assays using both wild type bacterial ribosomes and hybrid ribosomes carrying eukaryotic decoding A sites enabling the prediction of selectivity.

M. abscessus = experiment: MIC by broth microdilution, M. abscessus; type: cell-based; conditions: Mycobacteroides abscessus
[3] = system: mitochondrial ribosome (human chimeric); type: biochemical
Text: as §1

[4] = system: cytosolic ribosome (human chimeric); type: biochemical
Text: as §1

M. smegmatis SZ380 = experiment: MIC by broth microdilution, M. smegmatis; conditions: Mycolicibacterium smegmatis
[5] = system: E coli carrying specific resistance determinants; experiment: MIC by broth microdilution, E coli carrying specific resistance determinants; type: cell-based; conditions: for MIC50 / MIC: Escherichia coli

NC[C@@H]1O[C@H](O[C@H]2[C@@H](O)[C@H](O[C@@H]3[C@@H](O)[C@H](N)C[C@H](N)[C@H]3O[C@H]3O[C@H](CO)[C@@H](O)[C@H](O)[C@H]3N)O[C@@H]2CO)[C@H](N)[C@@H](O)[C@@H]1O [paromomycin, reference compound]
MIC50 (P aeruginosa; Pseudomonas aeruginosa, read-out: MIC50 P aeruginosa AG31): > 128 µg/mL | MIC50 (P aeruginosa; Pseudomonas aeruginosa, read-out: MIC50 P aeruginosa AG32): > 128 µg/mL | MIC50 (P aeruginosa; Pseudomonas aeruginosa, read-out: MIC50 P aeruginosa AG33): > 128 µg/mL | MIC50 (P aeruginosa; Pseudomonas aeruginosa, read-out: MIC50 P aeruginosa AG86): > 128 µg/mL | MIC (P aeruginosa; Pseudomonas aeruginosa, read-out: MIC AG031 P. aer. APH(3′)-II): > 128 µg/mL | MIC (P aeruginosa; Pseudomonas aeruginosa, read-out: MIC AG032 P. aer. APH(3′)-II): > 128 µg/mL | MIC50 P aeruginosa AG31 (P aeruginosa; strain AG31, Table 1 (Example 2)): >128 µg/mL | MIC50 P aeruginosa AG32 (P aeruginosa; strain AG32, Table 1 (Example 2)): >128 µg/mL | MIC50 P aeruginosa AG33 (P aeruginosa; strain AG33, Table 1 (Example 2)): >128 µg/mL | MIC50 P aeruginosa AG86 (P aeruginosa; strain AG86, Table 1 (Example 2)): >128 µg/mL | MIC (P aeruginosa; strain AG220 Pseudomonas aeruginosa ATCC27853, read-out: MIC AG220 P. aerugin): > 64 µg/mL | IC50 [1]: 21 µM | IC50 [2]: 15 µM | MIC (M. abscessus; ATCC19977, read-out: MIC M. abscessus ATCC 19977 WT): 8 µg/mL (≈ 13 µM) | MIC (M. abscessus; read-out: MIC M. abscessus ATCC): 8 µg/mL (≈ 13 µM) | MIC (M. abscessus; read-out: MIC M. abscessus Clin. Isol.): 32 µg/mL (≈ 52 µM) | MIC (M. abscessus; read-out: MIC M. abscessus clinical isolate): 32 µg/mL (≈ 52 µM) | MIC (M. abscessus; read-out: MIC M. abscessus engineered Δeis2): 4 µg/mL (≈ 6.5 µM) | IC50 ([3]; mitochondrial, Table 3 (Example 1), read-out: IC50 Mit): 140 µM | IC50 ([3]; mitochondrial, Table 3 (Example 2), read-out: IC50 Mit): 140 µM | IC50 ([3]; mitochondrial, Table 4 (Example 3), read-out: IC50 Mit): 140 µM | IC50 ([3]; ribosomes with a human mitochondrial decoding site, read-out: IC50 Mitoch.): 140 µM | IC50 ([4]; cytosolic, Table 3 (Example 1), read-out: IC50 Cyt): 31 µM | IC50 ([4]; cytosolic, Table 3 (Example 2), read-out: IC50 Cyt): 31 µM | IC50 ([4]; cytosolic, Table 4 (Example 3), read-out: IC50 Cyt): 31 µM | IC50 ([4]; ribosomes with a human cytosolic decoding site, read-out: IC50 Cytosolic): 31 µM | MIC (M. smegmatis SZ380; SZ380, read-out: MIC M. smegmatis SZ380 WT, SZ380 WT, Table 5 (Example 3)): 1 µg/mL (≈ 1.62 µM) | MIC (M. smegmatis SZ380; SZ380, read-out: MIC SZ380 M. smegmatis, strain SZ380 Mycobacterium smegmatis): 1 µg/mL (≈ 1.62 µM) | MIC APH(3′)-II ([5]; APH(3′)-II, Table 3 (Example 2)): >64 µg/mL | MIC50 ([5]; read-out: MIC50 E coli AG07 AAC(3), AG07 AAC(3), Table 2A (Example 2)): 4 to 8 µg/mL (≈ 6.5 to 13 µM) | MIC50 ([5]; read-out: MIC50 E coli AG09 AAC(6′), AG09 AAC(6′), Table 2A (Example 2)): 8 to 16 µg/mL (≈ 13 to 26 µM) | MIC50 ([5]; read-out: MIC50 E coli AG036 ANT(4′,4″), AG036 ANT(4′,4″), Table 2A (Example 2)): 256 µg/mL (≈ 416 µM) | MIC50 ([5]; read-out: MIC50 E coli AG036 ANT(4′,4″), AG036 ANT(4′,4″), Table 2B (Example 2)): 32 to 64 µg/mL (≈ 52 to 104 µM) | MIC50 ([5]; read-out: MIC50 E coli AG037 APH(3′)-III, AG037 APH(3′)-III, Table 2B (Example 2)): > 128 µg/mL | MIC50 ([5]; read-out: MIC50 E coli AG037 APH(3′,5″), AG037 APH(3′,5″), Table 2A (Example 2)): > 256 µg/mL | MIC50 ([5]; read-out: MIC50 E coli AG103 ArmA, AG103 ArmA, Table 2A (Example 2)): 4 µg/mL (≈ 6.5 µM) | MIC50 ([5]; read-out: MIC50 E coli AG103 armA, AG103 armA, Table 2B (Example 2)): 2 µg/mL (≈ 3.25 µM) | MIC50 ([5]; read-out: MIC50 E coli AG105 AAC(2′), AG105 AAC(2′), Table 2A (Example 2)): 2 to 4 µg/mL (≈ 3.25 to 6.5 µM) | MIC50 ([5]; read-out: MIC50 E coli pH414 AAC(6′)-I, pH414 AAC(6′)-I, Table 2B (Example 2)): 2 µg/mL (≈ 3.25 µM) | MIC50 ([5]; read-out: MIC50 E coli pH415 AAC(6′)-II, pH415 AAC(6′)-II, Table 2B (Example 2)): 2 to 4 µg/mL (≈ 3.25 to 6.5 µM) | MIC50 ([5]; read-out: MIC50 E coli pH421 APH(3′)-I, pH421 APH(3′)-I, Table 2B (Example 2)): > 128 µg/mL | MIC50 ([5]; read-out: MIC50 E coli pH422 APH(3′)-II, pH422 APH(3′)-II, Table 2B (Example 2)): > 128 µg/mL | MIC50 ([5]; read-out: MIC50 E coli pH423 APH(3)-VI, pH423 APH(3)-VI, Table 2B (Example 2)): > 128 µg/mL | MIC50 ([5]; read-out: MIC50 E coli pH432 ANT(4′), pH432 ANT(4′), Table 2B (Example 2)): 1 to 2 µg/mL (≈ 1.62 to 3.25 µM) | MIC ([5]; read-out: MIC AAC(6′)): 2 to 4 µg/mL (≈ 3.25 to 6.5 µM) | MIC ([5]; read-out: MIC AG003 E. coli AAC(3)-II): 2 to 4 µg/mL (≈ 3.25 to 6.5 µM) | MIC ([5]; read-out: MIC AG036 ANT(4′,4′′)): 32 to 64 µg/mL (≈ 52 to 104 µM) | MIC ([5]; read-out: MIC AG037 APH(3′)-III): > 128 µg/mL | MIC ([5]; read-out: MIC AG037 E. coli APH(3′)-III): > 128 µg/mL | MIC ([5]; read-out: MIC AG103 armA): 2 µg/mL (≈ 3.25 µM) | MIC ([5]; read-out: MIC AG163 E. coli APH(3′)-I): > 128 µg/mL | MIC ([5]; read-out: MIC AG166 E. coli APH(3′)-II): > 128 µg/mL | MIC ([5]; read-out: MIC ANT(4′)): 32 to 64 µg/mL (≈ 52 to 104 µM) | MIC ([5]; read-out: MIC APH(3)-VI): > 64 µg/mL | MIC ([5]; read-out: MIC APH(3′)-I): > 64 µg/mL | MIC ([5]; read-out: MIC APH(3′)-II): > 64 µg/mL | MIC ([5]; read-out: MIC APH(3′)-III): > 64 µg/mL | MIC ([5]; read-out: MIC APH(3′)-VI): > 64 µg/mL | MIC ([5]; read-out: MIC E coli AG007 ANT(3″) AAC(3)-I): 4 µg/mL (≈ 6.5 µM) | MIC ([5]; read-out: MIC E coli AG103 ArmA): 1 to 2 µg/mL (≈ 1.62 to 3.25 µM) | MIC ([5]; read-out: MIC E coli AG106 AAC(2′)): > 64 µg/mL | MIC ([5]; read-out: MIC E coli AG163/164 APH(3′)-Ia): > 128 µg/mL | MIC ([5]; read-out: MIC E coli AG166 APH(3′)-IIa): > 128 µg/mL | MIC ([5]; read-out: MIC E coli AG173 AAC(3)-IV): 2 to 4 µg/mL (≈ 3.25 to 6.5 µM)
